Like-named read-outs stand apart in the source and are kept apart here.
What was measured:
[1] = tested on: collagen-induced platelet aggregation; experiment: Platelet aggregation suppressing effect (collagen-induced aggregation in platelet rich plasma); assay type: cell-based; conditions: human PRP, 37° C., collagen as inducer, read-out: Inhibitory effect of collagen-induced platelet aggregation IC50
Protocol: Human blood was collected using 3.13% sodium citrate in a volume 1/10 of the blood volume, as an anticoagulant. The collected blood was centrifuged at 180 g for 10 minutes to separate platelet rich plasma (PRP) from the blood. After collecting the PRP fraction in the upper layer, the lower layer was further centrifuged at 1600 g for 10 minutes to fractionate platelet poor plasma (PPP) in the upper layer. One μl of a solution of a compound obtained in the Examples was added to 200 μl of PRP, and the mixture was allowed to stand at 37° C. for 2 minutes. Subsequently, 2 μl of collagen was added thereto, so as to induce platelet aggregation. The platelet aggregation rate was measured using PAM-12C(SSR Engineering, Inc.).

Cyclooxygenase-1 (COX-1) = target: T1, Cyclooxygenase-1 (COX-1) (Ovis aries, UniProt P05979); experiment: COX-1 inhibition, COX Inhibitor Screening Assay Kit (PGF2α production, ELISA); assay type: biochemical; conditions: compound 50 μM
T1 construct: purchased Cayman Chemical Company 560101
T1 sequence (P05979 25-600): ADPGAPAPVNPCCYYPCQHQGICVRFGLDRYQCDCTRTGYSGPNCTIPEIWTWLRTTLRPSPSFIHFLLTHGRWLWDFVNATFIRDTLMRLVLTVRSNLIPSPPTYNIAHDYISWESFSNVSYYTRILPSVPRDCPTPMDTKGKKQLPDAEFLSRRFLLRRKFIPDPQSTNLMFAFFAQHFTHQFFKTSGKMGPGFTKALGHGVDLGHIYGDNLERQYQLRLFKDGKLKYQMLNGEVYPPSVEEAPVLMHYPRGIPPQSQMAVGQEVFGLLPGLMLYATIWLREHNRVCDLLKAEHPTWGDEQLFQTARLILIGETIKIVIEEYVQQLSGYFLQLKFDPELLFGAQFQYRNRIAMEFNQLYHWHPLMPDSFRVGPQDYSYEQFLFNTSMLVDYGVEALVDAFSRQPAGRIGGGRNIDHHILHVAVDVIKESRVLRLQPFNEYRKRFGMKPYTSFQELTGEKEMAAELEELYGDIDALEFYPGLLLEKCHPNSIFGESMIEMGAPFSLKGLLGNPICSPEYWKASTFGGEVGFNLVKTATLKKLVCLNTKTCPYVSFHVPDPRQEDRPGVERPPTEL
Description: (§1) For the measurement of the inhibitory activity of the compounds obtained in the Examples against COX-1 and COX-2, a COX Inhibitor Screening Assay Kit manufactured by Cayman Chemical Company (Catalog Nos. 560101 and 560121) was used.
(§2) Before starting the measurement, a reaction buffer, heme, arachidonic acid, SnCl2, EIA buffer, a washing buffer, prostaglandin (PG)-screening EIA standard solution, PG-screening acetylcholinesterase (AchE), a tracer […], and PG-screening EIA antiserum were provided.
A reaction solution containing a compound of the Examples (50 μM) and COX-1, or a reaction solution containing a compound of the Examples (300 μM) and COX-2 was allowed to stand at 37° C. for 10 minutes, then 10 μl of arachidonic acid was added thereto, and the resultant mixture was allowed to stand at 37° C. for 2 minutes. After the reaction, 50 μl of 1 N hydrochloric acid was added to the reaction mixture to stop the reaction, and 100 μl of a SnCl2 solution was added thereto. The resultant mixture was allowed to stand at room temperature for 5 minutes.
50 μl of antiserum (rabbit anti-PGF2α antibody) was added to each well of a 96-well plate coated with mouse anti-rabbit IgG. Then, 50 μl of a solution prepared by diluting the reaction solution for PGF2α production to 2000-folds, and 50 μl of an AchE tracer were added sequentially to the wells, and the plate was kept at room temperature for 18 hours. Each well washed 5 times with the washing buffer to remove excessive AchE tracer, and then 200 μl of Ellman reagent was added to each well. The plate was kept in the dark room for 60 minutes, and then, absorbance at 405 nm was measured.
A standard curve was produced using a PG-screening EIA standard solution, and the amount of PGF2α production was determined from the absorbance obtained as described above. The COX-1 inhibition rate at 50 μM of the compound of the Examples, and the COX-2 inhibition rate at 300 μM of the compound of the Examples were calculated.

Cyclooxygenase-2 (COX-2) = target: T2, Cyclooxygenase-2 (COX-2) (Homo sapiens, UniProt P35354); experiment: COX-2 inhibition, COX Inhibitor Screening Assay Kit (PGF2α production, ELISA); assay type: biochemical; conditions: compound 300 μM
T2 construct: purchased Cayman Chemical Company 560121
T2 sequence (P35354 18-604): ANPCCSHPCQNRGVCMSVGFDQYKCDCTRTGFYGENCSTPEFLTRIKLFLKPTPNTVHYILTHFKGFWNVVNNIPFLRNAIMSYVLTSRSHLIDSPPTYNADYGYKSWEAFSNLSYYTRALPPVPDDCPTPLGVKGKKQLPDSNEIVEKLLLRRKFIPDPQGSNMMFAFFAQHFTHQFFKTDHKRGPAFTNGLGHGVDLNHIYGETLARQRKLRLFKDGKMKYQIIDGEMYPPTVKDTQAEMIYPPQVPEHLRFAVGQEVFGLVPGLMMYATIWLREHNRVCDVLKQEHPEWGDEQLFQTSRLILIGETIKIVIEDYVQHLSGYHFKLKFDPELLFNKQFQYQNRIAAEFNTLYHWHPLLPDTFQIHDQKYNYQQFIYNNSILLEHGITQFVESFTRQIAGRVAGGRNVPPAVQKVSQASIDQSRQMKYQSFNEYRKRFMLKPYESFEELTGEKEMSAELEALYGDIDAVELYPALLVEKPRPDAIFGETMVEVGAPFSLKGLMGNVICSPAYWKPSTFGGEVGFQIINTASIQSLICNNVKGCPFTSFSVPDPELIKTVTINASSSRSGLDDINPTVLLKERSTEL
Description: as §1, §2
A reaction solution containing a compound of the Examples (50 μM) and COX-1, or a reaction solution containing a compound of the Examples (300 μM) and COX-2 was allowed to stand at 37° C. for 10 minutes, then 10 μl of arachidonic acid was added thereto, and the resultant mixture was allowed to stand at 37° C. for 2 minutes. […]
50 μl of antiserum (rabbit anti-PGF2α antibody) was added to each well of a 96-well plate coated with mouse anti-rabbit IgG. […] The plate was kept in the dark room for 60 minutes, and then, absorbance at 405 nm was measured.
A standard curve was produced using a PG-screening EIA standard solution, and the amount of PGF2α production was determined from the absorbance obtained as described above. […]

[2] = tested on: collagen-induced platelet aggregation; conditions: background art, cited from earlier work

Compound	IC50 [1]	COX-1 inhibitory action at 50 μM (% inhibition) (Cyclooxygenase-1 (COX-1))	COX-2 inhibitory action at 300 μM (% inhibition) (Cyclooxygenase-2 (COX-2))	IC50 ([2]; read-out: IC50 value against collagen-induced platelet aggregation)	platelet aggregation inhibitory action compared with inhibitory activity against COX-2 [2]
COc1ccc(-n2nc(C(=O)N3CCOCC3)cc2-c2cnn(C)c2)cn1 [Example 115, 4-[1-(6-Methoxy-3-pyridyl)-5-(1-methyl-1H-pyrazol-4-yl)-1H-pyrazole-3-carbonyl]morpholine]	110 nM	−21.2 % inhibition	23.4 % inhibition	–	–
CS(=O)(=O)c1ccc(-c2cc(C#N)nn2-c2ccc(F)cc2)cc1 [compound (A)]	–	–	–	5300 nM	–
COc1ccc(-n2nc(C(=O)N3CCC(OC)CC3)cc2-c2cn(C)cn2)cn1 [Example 73, 1-[1-(6-Methoxy-3-pyridyl)-5-(1-methyl-1H-imidazol-4-yl)-1H-pyrazole-3-carbonyl]-4-methoxypiperidine]	150 nM	5.9 % inhibition	15.5 % inhibition	–	–
COC1CCN(C(=O)c2cc(-c3cnc(C)cn3)n(-c3ccc(C)nc3)n2)CC1 [Example 3, 1-[5-(5-Methyl-2-pyrazinyl)-1-(6-methyl-3-pyridyl)-1H-pyrazole-3-carbonyl]-4-methoxypiperidine]	220 nM	−21.2 % inhibition	–	–	–
Cc1ccc(-n2nc(C(=O)N3CCC(F)CC3)cc2-c2cnc(C)cn2)cn1 [Example 32, 1-[5-(5-Methyl-2-pyrazinyl)-1-(6-methyl-3-pyridyl)-1H-pyrazole-3-carbonyl]-4-fluoropiperidine]	210 nM	−8.4 % inhibition	–	–	–
COc1ccc(-n2nc(C(=O)N3CCOCC3)cc2-c2cscn2)cn1 [Example 118, 4-[1-(6-Methoxy-3-pyridyl)-5-(thiazol-4-yl)-1H-pyrazole-3-carbonyl]morpholine]	79 nM	−12.7 % inhibition	–	–	–
COc1ccc(-n2nc(C(=O)N3CCN(C)C(=O)C3)cc2-c2ccn(C)c2)nn1 [Example 124, 1-[1-(6-Methoxy-3-pyridazinyl)-5-(1-methyl-1H-pyrrol-3-yl)-1H-pyrazole-3-carbonyl]-4-methyl-3-oxopiperazine]	440 nM	8.3 % inhibition	–	–	–
COc1ccc(-n2nc(C(=O)N3CCN(C)C(=O)C3)cc2-c2cnn(C)c2)cn1 [Example 121, 1-[1-(6-Methoxy-3-pyridyl)-5-(1-methyl-1H-pyrazol-4-yl)-1H-pyrazole-3-carbonyl]-4-methyl-3-oxopiperazine]	710 nM	−0.7 % inhibition	–	–	–
COc1ccc(-n2nc(C(=O)N3CCC[C@H]3CF)cc2-c2ccccn2)nn1 [Example 31, (2S)-1-[1-(6-Methoxy-3-pyridazinyl)-5-(2-pyridyl)-1H-pyrazole-3-carbonyl]-2-fluoromethylpyrrolidine]	180 nM	−10.5 % inhibition	–	–	–
COc1ccc(-n2nc(C(=O)N3CCN(C)CC3)cc2-c2cscn2)cn1 [Example 127, 1-[1-(6-Methoxy-3-pyridyl)-5-(thiazol-4-yl)-1H-pyrazole-3-carbonyl]-4-methylpiperazine]	230 nM	−21.2 % inhibition	–	–	–
COc1ccc(-n2nc(C(=O)N3CCC(F)(F)CC3)cc2-c2cnn(C)c2)nn1 [Example 141, 1-[1-(6-Methoxy-3-pyridazinyl)-5-(1-methyl-1H-pyrazol-4-yl)-1H-pyrazole-3-carbonyl]-4,4-difluoropiperidine]	190 nM	24.4 % inhibition	–	–	–
COc1ccc(-n2nc(C(=O)N3CCC(OC)CC3)cc2-c2cnn(C)c2)cn1 [Example 119, 1-[1-(6-Methoxy-3-pyridyl)-5-(1-methyl-1H-pyrazol-4-yl)-1H-pyrazole-3-carbonyl]-4-methoxypiperidine]	160 nM	13.0 % inhibition	–	–	–
COc1ccc(-c2cc(C(=O)N3CCC(OC)CC3)nn2-c2ccc(C)nc2)nc1 [Example 4, 1-[5-(5-Methoxy-2-pyridyl)-1-(6-methyl-3-pyridyl)-1H-pyrazole-3-carbonyl]-4-methoxypiperidine]	210 nM	−13.3 % inhibition	–	–	–
COc1ccc(-n2nc(C(=O)N3CCN(C)C(=O)C3)cc2-c2cscn2)cn1 [Example 126, 1-[1-(6-Methoxy-3-pyridyl)-5-(thiazol-4-yl)-1H-pyrazole-3-carbonyl]-4-methyl-3-oxopiperazine]	360 nM	−6.4 % inhibition	–	–	–
Cc1ccc(-n2nc(C(=O)N3CCC(F)(F)CC3)cc2-c2cnc(C)cn2)cn1 [Example 2, 1-[5-(5-Methyl-2-pyrazinyl)-1-(6-methyl-3-pyridyl)-1H-pyrazole-3-carbonyl]-4,4-difluoropiperidine]	130 nM	−1.2 % inhibition	–	–	–
COc1ccc(-c2cc(C(F)F)nn2-c2ccc(S(N)(=O)=O)cc2)cc1F [compound (B)]	–	–	–	–	not as strong as the inhibitory activity of the compound against COX-2
